The values below are quoted from earlier work in PMC2505184 (Bioconjugate chemistry, 2008).

Each structure is given as a SMILES string.

With `O=C([O-])CN1CCCN(CC(=O)[O-])CCN(CC(=O)[O-])CCCN(CC(=O)[O-])CC1.[64Cu+2]` [^64Cu-TETA], the “in vitro serum stability” value is recorded as “high in vitro serum stability”.
